Laboratory results: publication PMC9077470 (RSC Advances, 2018)
Values after ≈ are worked out from the molar mass of the structure shown. “Also recorded” adds a separate entry of the source.

Legend:
[1] = test system: TNBS-induced experimental colitis; test: TNBS-induced colitis: body weight, survival rates, overall effect; assay type: in vivo, mice; details: for body weight of mice / therapeutic effects on the TNBS-induced UC (overall): TNBS colitis mice; for body weight of mice: once daily 5 days, equivalent to 100 mg kg^−1 5-ASA; for therapeutic effects on the TNBS-induced UC (overall): Ols-DB as enema, others i.g.; for ameliorative effects on TNBS-induced colitis (overall), compared with positive control: vs positive control, oral administration
Experimental: Colitis was induced according to the previous study.[18,19] Briefly, after 12 h of fasting, mice were anesthetized with intraperitoneal pentobarbital sodium (35 mg kg^-1) before the induction of colitis. 0.1 mL of 50% (v/v) ethanol contained 2.5% (v/v) TNBS was instilled into the colon 3.5-4 cm from the anus by a gavage needle. The mice were kept in a head-down position for 30 s to prevent leakage of the intracolonic instillation. Mice in the control group received normal saline instead of TNBS solution, a physical mixture of 5-ASA and sodium butyrate was used as the positive control. […] The treatments were given once daily for 5 continuous days starting 24 hours after the induction of colitis. After the induction of colitis, the body weight of each mice was recorded daily, and the curves of weight changes for each group were drawn to evaluate the TNBS-induced colitis. Meanwhile, the death of mice in each group was recorded daily and the final survival rates of mice were calculated.

[2] = test system: SOD, MDA, GSH, GSH-Px in colonic tissues; test: TNBS-induced colitis: levels of SOD, MDA, GSH and GSH-Px in colonic tissues; assay type: in vivo, mice; details: for GSH-Px activities in the colon / MDA levels in the colon / SOD activities in the colon / levels of GSH in the colon: vs TNBS group; for GSH-Px activities in the colon / MDA levels in the colon / SOD activities in the colon / levels of GSH in the colon / effect on decreasing the MDA level, compared with positive control: p < 0.01; for effect on increasing GSH, compared with positive control / effect on increasing GSH-Px, compared with positive control / effect on increasing SOD, compared with positive control / effect on decreasing the MDA level, compared with positive control: vs positive control
Experimental: Colitis was induced according to the previous study.[18,19] Briefly, after 12 h of fasting, mice were anesthetized with intraperitoneal pentobarbital sodium (35 mg kg^-1) before the induction of colitis. 0.1 mL of 50% (v/v) ethanol contained 2.5% (v/v) TNBS was instilled into the colon 3.5-4 cm from the anus by a gavage needle. The mice were kept in a head-down position for 30 s to prevent leakage of the intracolonic instillation. Mice in the control group received normal saline instead of TNBS solution, a physical mixture of 5-ASA and sodium butyrate was used as the positive control. […] The treatments were given once daily for 5 continuous days starting 24 hours after the induction of colitis. Colon tissue samples were homogenized with normal saline, the homogenate (10%, w/w) was centrifuged at 13 000 rpm for 15 min, and the resulting supernatant was diluted to 1% (w/w) for further assay. The protein levels of the colon homogenate were detected by a BCA protein assay kit. Then the activities of SOD and GSH-Px, and the levels of MDA and GSH of samples in each group were measured by the assay kits according to the provider's instructions.

[3] = In vivo incubation in the colon of rats; details: injected into tied rat colon, 6 h
Experimental: 6 hours later, rats were sacrificed and their colon contents were separated and homogenized in 40 mL of phosphate buffer (pH 7.4). The homogenate was sonicated for 5 min and centrifuged at 13 000 rpm for 5 min, then 0.2 mL of the supernatant was collected and mixed with 0.8 mL of methanol. Finally, samples were centrifuged, filtered and analyzed by HPLC. The residual contents of each prodrug in colon contents were calculated, and the hydrolysis ratio was calculated by the following equation: [drawing 2] where Wr is the residual amount of prodrugs in the colon contents and Wi is the initial amount of prodrugs that administered to rats.

[4] = In vitro incubation with small intestine contents of rats; assay type: in vitro ADME; details: rat small intestine contents homogenate, pH 6.8, 37 °C, after 4 h of incubation
Experimental: After anesthetized with diethyl ether, rats were sacrificed and their contents of stomach and small intestine were collected and homogenized respectively, the homogenate was diluted with buffer solution (pH 1.2 for stomach contents, pH 6.8 for small intestine contents) to 20% (w/v). […] After 0.25, 0.5, 1.0, 1.5, 2.0, 3.0 and 4.0 h of incubation, 200 μL of samples were collected and replaced with the same volume of blank homogenate, then samples were centrifuged at 13 000 rpm for 5 min, filtered with membrane filter, and analyzed by HPLC. The residual contents of each prodrug in homogenate were calculated and the hydrolysis curves were drawn.

[5] = test system: MPO activity in colonic tissues; test: TNBS-induced colitis: MPO activity in colonic tissues; assay type: in vivo, mice; details: for MPO activity in colonic tissues: vs TNBS group, p < 0.01; for MPO activity, compared with positive control: vs positive control
Experimental: Colitis was induced according to the previous study.[18,19] Briefly, after 12 h of fasting, mice were anesthetized with intraperitoneal pentobarbital sodium (35 mg kg^-1) before the induction of colitis. 0.1 mL of 50% (v/v) ethanol contained 2.5% (v/v) TNBS was instilled into the colon 3.5-4 cm from the anus by a gavage needle. The mice were kept in a head-down position for 30 s to prevent leakage of the intracolonic instillation. Mice in the control group received normal saline instead of TNBS solution, a physical mixture of 5-ASA and sodium butyrate was used as the positive control. […] The treatments were given once daily for 5 continuous days starting 24 hours after the induction of colitis. […] Samples were freeze-thawed three times, after which sonication was repeated. Homogenates were then centrifuged at 13 000 rpm for 30 min and MPO was extracted from the resulting supernatant.[25] MPO activity was measured by the assay kit according to its provider's instructions.

[6] = Aqueous solubility (equilibrium, distilled water); assay type: physicochemical; details: 25 °C, thermodynamic from solid, 25 ± 2 °C, means ± SD, n = 3, read-out: S (aqueous solubility)
Experimental: The mixtures were placed in an ultrasonic water bath for 10 min and then shaken for 24 h to establish a saturation equilibrium. Upon filtration, the filtrate was diluted with an appropriate amount of water and the mixture was analyzed by HPLC, the concentration of each compound in its saturated solution was calculated.

[7] = test system: TNBS-induced experimental colitis; test: TNBS-induced colitis: colon index and colonic damage score (CDS); assay type: in vivo, mice; details: for colon index, compared with positive control: vs positive control (5-ASDB p < 0.05, Ols-DBP p < 0.01); for CDS, compared with positive control: vs positive control, p < 0.05
Experimental: Colitis was induced according to the previous study.[18,19] Briefly, after 12 h of fasting, mice were anesthetized with intraperitoneal pentobarbital sodium (35 mg kg^-1) before the induction of colitis. 0.1 mL of 50% (v/v) ethanol contained 2.5% (v/v) TNBS was instilled into the colon 3.5-4 cm from the anus by a gavage needle. The mice were kept in a head-down position for 30 s to prevent leakage of the intracolonic instillation. Mice in the control group received normal saline instead of TNBS solution, a physical mixture of 5-ASA and sodium butyrate was used as the positive control. […] The treatments were given once daily for 5 continuous days starting 24 hours after the induction of colitis. At the end of the experiment, all mice were sacrificed and their entire colons were excised, opened longitudinally and washed carefully with normal saline. After dried with filter papers, colons were weighted and the length of colons was measured and recorded. The colon index was calculated as follows:Colon index (g dm^-1) = weight of colon/length of colon The colonic damage score (CDS) of mice in each group was evaluated according to the following criteria: 0, no ulcer and colitis; 1, no ulcer, local congestion; 2, ulcers, no local congestion; 3, ulcer and colitis at only one site; 4, ulcer and colitis at more than one sites; 5, over 2 cm of ulcer surface.[24]

Compound	body weight of mice [1]	therapeutic effects on the TNBS-induced UC (overall) [1]	ameliorative effects on TNBS-induced colitis (overall), compared with positive control [1]	GSH-Px activities in the colon [2]	MDA levels in the colon [2]	SOD activities in the colon [2]	levels of GSH in the colon [2]	effect on increasing GSH, compared with positive control [2]	effect on increasing GSH-Px, compared with positive control [2]	effect on increasing SOD, compared with positive control [2]	effect on decreasing the MDA level, compared with positive control [2]	hydrolysis ratio after in vivo incubation in rat colons [3]	residual content of prodrug in small intestine contents [4]	MPO activity in colonic tissues [5]	MPO activity, compared with positive control [5]	solubility at 24 h [6]	colon index, compared with positive control [7]	CDS, compared with positive control [7]
CCCC(=O)OCC(COC(=O)CCC)OC(=O)c1cc(N)ccc1O [5-ASDB, 2-(1,3-dibutyroxypropyl)-5-aminosalicylate]	slight weight loss at first and gained gradually from the 2nd day	certain therapeutic effects	significantly greater than the positive control	increased	significantly decreased	increased	significantly higher	significantly greater effects	significantly greater effects	significantly greater effects	significantly greater effects	almost hydrolyzed completely	94.7%	significantly decreased	significantly better than the positive control	80 ± 20 mg/mL (≈ 218 mM)	significantly better than the positive control	significantly greater than the positive control
CCCC(=O)Oc1ccc(N=Nc2ccc(OC(=O)CCC)c(C(=O)O)c2)cc1C(=O)O [Ols-DB, 3,3′-azobis(6-hydroxybenzoicacid)dibutyrate]	slight weight loss at first and gained gradually from the 2nd day	just as effective as 5-ASDB and Ols-DBP; also recorded: certain therapeutic effects	–	increased	significantly decreased	increased	significantly higher	–	–	–	–	almost hydrolyzed completely	5.5%	significantly decreased	significantly better than the positive control	270 ± 30 mg/mL (≈ 610 mM)	–	significantly greater than the positive control
CCCC(=O)OCC(COC(=O)CCC)OC(=O)c1cc(N=Nc2ccc(O)c(C(=O)OC(COC(=O)CCC)COC(=O)CCC)c2)ccc1O [Ols-DBP]	slight weight loss at first and gained gradually from the 2nd day	certain therapeutic effects	significantly greater than the positive control	increased	significantly decreased	increased	significantly higher	significantly greater effects	significantly greater effects	significantly greater effects	significantly greater effects	almost hydrolyzed completely	90.4%	significantly decreased	significantly better than the positive control	190 ± 40 mg/mL (≈ 260 mM)	significantly better than the positive control	significantly greater than the positive control
